This is an account of results in US20120053318A1, “METHOD OF RADIOLABELING” (CENTRE FOR PROBE DEVELOPMENT AND COMMERCIALIZATION, priority 2010, published 2012).

The conditions of series [1]: oils selected based on biocompatibility; cited from earlier work.
Series [2] deals with urokinase plasminogen activator receptor (uPAR) (Homo sapiens, UniProt Q03405). In words: binding affinity of Re complexes of the peptides for uPAR. The settings on record: isostructural to the Tc analogues.
urokinase plasminogen activator receptor (uPAR), sequence (Q03405 23-305): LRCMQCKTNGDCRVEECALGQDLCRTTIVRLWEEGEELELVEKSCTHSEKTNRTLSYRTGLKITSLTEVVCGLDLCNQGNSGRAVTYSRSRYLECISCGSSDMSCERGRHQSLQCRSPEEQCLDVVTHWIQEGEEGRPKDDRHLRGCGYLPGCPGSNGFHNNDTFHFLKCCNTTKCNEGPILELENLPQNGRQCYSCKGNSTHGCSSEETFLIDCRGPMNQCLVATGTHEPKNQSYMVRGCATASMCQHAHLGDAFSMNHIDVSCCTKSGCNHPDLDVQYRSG

As to `CC(C)CC(C)(C)C` [isooctane], in series [1], the LD50 entry is “greater than 2000 mg/kg”.

In general, Ki refers to the dissociation constant of the complex between target and ligand, obtained from inhibition or displacement. The low end stands for tighter binding, the high end for weaker binding. For the compound D-Cha-F-s-r-Y-L-W-S-SAACII [L2], in series [2], the Ki is 0.39 ± 0.1 nM.

As for SAACII-S-G-S-G-D-Cha-F-s-r-Y-L-W-S [L1], the inhibition constant (Ki) in series [2] stood at 1.37 ± 0.83 nM.
